What was measured:
hCAII = system: hCAII; set-up: method as in PMID 12713833; details: pH 7.8; cited from earlier work
hCAI = system: hCAI; set-up: method as in PMID 12713833; details: pH 7.8; cited from earlier work
[1] = Esterase activity assay in whole-cell lysates; assay type: biochemical, human; details: kcat/KM vs unmodified isoform
[2] = Differential scanning fluorimetry; assay type: physicochemical, human
Protocol: The diminished activity of hCAII^S29E and hCAI^S30E can be attributed to protein unfolding or misfolding upon introduction of a charged residue close to the hydrophobic side of the ligand-binding pocket. The phosphomimic hCAII^S29E was only expressed as a soluble protein when using ArcticExpress E. coli at 10 °C but not with T7 Express or C43 (DE3) E. coli. In ArticExpress cells, a cold-adapted chaperonin is co-expressed to assist folding at low temperatures. In addition, hCAI^S30E expresses at a very low yield in the soluble fraction even with the ArcticExpress system, and below detectable levels in T7 Express or C43 (DE3) E. coli. Moreover, an S > E mutation at Ser29 in another cytosolic carbonic anhydrase isoform (hCAIII) destabilizes the protein and decreases the melting temperature from 59 °C to 43 °C in differential scanning fluorimetry (Figure S5).

## CC(=O)Oc1ccc([N+](=O)[O-])cc1 [pNPA, p-nitrophenyl acetate]
hCAII
  Km: 2.92 mM
hCAI
  Km: 15.4 mM

## hCAI S30E: human carbonic anhydrase I phosphomimic, Ser30 to Glu
[1]
  fold decrease in catalytic activity compared to the respective unmodified isoform: 2.7 fold

B1: hCAIII: cytosolic human carbonic anhydrase isoform III (protein, UniProt P07451 2-260, looked up)
Carbonic anhydrase 3: AKEWGYASHNGPDHWHELFPNAKGENQSPVELHTKDIRHDPSLQPWSVSYDGGSAKTILNNGKTCRVVFDDTYDRSMLRGGPLPGPYRLRQFHLHWGSSDDHGSEHTVDGVKYAAELHLVHWNPKYNTFKEALKQRDGIAVIGIFLKIGHENGEFQIFLDALDKIKTKGKEAPFTKFDPSCLFPACRDYWTYQGSFTTPPCEECIVWLLLKEPMTVSSDQMAKLRSLLSSAENEPPVPLVSNWRPPQPINNRVVRASFK
[2]
  melting temperature: 59 °C
